{"source": "patent US20020137929A1", "about": "“1 - (3-heterocyclylphenyl) isothiourea, -isourea, -guanidine and -amidine herbicidal agents” (Intellectual Property Department, BASF Aktiengesellschaft, priority 1998, published 2002)", "key": {"CASOB (Sicklepod)": {"system": "CASOB (Sicklepod)", "test": "Postemergence herbicidal evaluation", "format": "in vivo, Cassia obtusifolia", "settings": "postemergence", "in_short": "(§1)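 ~2-wk seedlings; postemergence spray, 40 psi; vehicle 1:1 acetone:water + 0.5% Tween 20; rate ≈0.0156–0.500 kg/ha; greenhouse hold; scored 4–5 wk after treatment, 0–9 scale vs control; repeat tests averaged.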"}, "AMBEL (Ragweed, Common)": {"system": "AMBEL (Ragweed, Common)", "test": "Preemergence herbicidal evaluation", "format": "in vivo, Ambrosia artemisifolia", "settings": "rated 4-5 weeks after treatment", "in_short": "(§2)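 Herbicidal effect scored visually, 0-9, at 4 to 5 weeks against a control; compound applied preemergence by aqueous acetone spray to seeded soil at about 0.0156 to 0.500 kg/ha.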"}, "[1]": {"system": "CHEAL (Lambsquarters, Common)", "test": "Preemergence herbicidal evaluation", "format": "in vivo, Chenopodium album", "settings": "rated 4-5 weeks after treatment", "in_short": "as §2"}, "CYPSE (Flatsedge) [2]": {"system": "CYPSE (Flatsedge)", "test": "Postemergence weed control under flooded paddy conditions", "format": "in vivo, Cyperus serotinus", "settings": "postemergence weeds, rated 3 to 4 weeks after treatment", "in_short": "(§3)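 Flood-water application, about 0.0313–0.500 kg/ha a.i. in aqueous/acetone 50/50 v/v; water depth 1.5–3 cm throughout. Weeds 3–5 cm, rice 1.5–2.5 leaf. Greenhouse; 0–9 visual rating vs control at 3–4 wk.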"}, "[3]": {"system": "TRZAWR (Wheat, Winter, cv Riband)", "test": "Preemergence herbicidal evaluation", "format": "in vivo, Triticum aestivum", "settings": "rated 4-5 weeks after treatment", "in_short": "as §2"}, "GALAP (Galium)": {"system": "GALAP (Galium)", "test": "Postemergence herbicidal evaluation", "format": "in vivo, Galium aparine", "settings": "postemergence", "in_short": "as §1"}, "[4]": {"system": "ECHORC (Watergrass (Calif.))", "test": "Postemergence weed control under flooded paddy conditions", "format": "in vivo, Echinochloa oryzoides", "settings": "postemergence weeds, rated 3 to 4 weeks after treatment", "in_short": "as §3"}, "ZEAMX (Corn, Field) [5]": {"system": "ZEAMX (Corn, Field)", "test": "Preemergence herbicidal evaluation", "format": "in vivo, Zea mays", "settings": "rated 4-5 weeks after treatment", "in_short": "as §2"}, "ZEAMX (Corn, Field) [6]": {"system": "ZEAMX (Corn, Field)", "test": "Postemergence herbicidal evaluation", "format": "in vivo, Zea mays", "settings": "postemergence", "in_short": "as §1"}, "[7]": {"system": "IPOHE (Morningglory, Ivyleaf)", "test": "Preemergence herbicidal evaluation", "format": "in vivo, Ipomoea hederacea", "settings": "rated 4-5 weeks after treatment", "in_short": "as §2"}, "CYPSE (Flatsedge) [8]": {"system": "CYPSE (Flatsedge)", "test": "Preemergence weed control under flooded paddy conditions", "format": "in vivo, Cyperus serotinus", "settings": "rated 3-4 weeks after treatment", "in_short": "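Flooded-pot preemergence screen with silt loam and seeds in the upper 0.5 cm. Dose about 0.0313 to 0.500 kg/ha, delivered into flood water; visual 0-9 score after 3 to 4 weeks.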"}, "[9]": {"system": "ECHORC (Watergrass (Calif.))", "test": "Preemergence weed control under flooded paddy conditions", "format": "in vivo, Echinochloa oryzoides", "settings": "rated 3-4 weeks after treatment", "in_short": "(§4)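 Herbicidal effect is scored visually on a 0-9 scale against an untreated control, three to four weeks after compounds are pipetted into the flood water (1.5 to 3 cm deep) over seeds planted in silt loam at 0.5 cm depth. Rates: about 0.0313 to 0.500 kg/ha.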"}, "ORYSAT (Rice, Tebonnet)": {"system": "ORYSAT (Rice, Tebonnet)", "test": "Preemergence herbicidal evaluation", "format": "in vivo, Oryza sativa, (L.) Tebonnet", "settings": "rated 4-5 weeks after treatment", "in_short": "as §2"}, "CYPIR (Rice Flatsedge)": {"system": "CYPIR (Rice Flatsedge)", "test": "Preemergence weed control under flooded paddy conditions", "format": "in vivo, Cyperus iria", "settings": "rated 3-4 weeks after treatment", "in_short": "as §4"}}}
{"smiles": "CCOC(=O)CN1C(=O)C(CC(=O)Nc2ccccc2)SC1=Nc1cc(-n2c(=O)cc(C(F)(F)F)n(C)c2=O)c(F)cc1Cl", "note": "(centres unmarked) [Compound 68, Ethyl 2-{{2-chloro-5-[3,6-dihydro-3-methyl-2,6-dioxo-4-(trifluoromethyl)-1(2H)-pyrimidinyl]-4-fluorophenyl}imino}-4-oxo-5-[(phenylcarbamoyl)-methyl]-3-thiazolidineacetate]", "values": [{"measurement": "CASOB herbicidal rating", "setting": "CASOB (Sicklepod); rate 0.0158 kg/ha", "result": 1.0}, {"measurement": "CASOB herbicidal rating", "setting": "CASOB (Sicklepod); rate 0.0315 kg/ha", "result": 4.0}, {"measurement": "CASOB herbicidal rating", "setting": "CASOB (Sicklepod); rate 0.0630 kg/ha", "result": 7.0}, {"measurement": "Preemergence herbicidal rating AMBEL", "setting": "AMBEL (Ragweed, Common); rate 0.0156 kg/ha", "result": 0.0}, {"measurement": "Preemergence herbicidal rating AMBEL", "setting": "AMBEL (Ragweed, Common); rate 0.0313 kg/ha", "result": 0.0}, {"measurement": "Preemergence herbicidal rating AMBEL", "setting": "AMBEL (Ragweed, Common); rate 0.0625 kg/ha", "result": 0.0}, {"measurement": "Preemergence herbicidal rating AMBEL", "setting": "AMBEL (Ragweed, Common); rate 0.1250 kg/ha", "result": 1.0}, {"measurement": "Preemergence herbicidal rating AMBEL", "setting": "AMBEL (Ragweed, Common); rate 0.2500 kg/ha", "result": 7.0}, {"measurement": "Preemergence herbicidal rating CHEAL", "setting": "[1]; rate 0.0156 kg/ha", "result": 2.0}, {"measurement": "Preemergence herbicidal rating CHEAL", "setting": "[1]; rate 0.0313 kg/ha", "result": 9.0}, {"measurement": "Preemergence herbicidal rating CHEAL", "setting": "[1]; rate 0.0625 kg/ha", "result": 9.0}, {"measurement": "Preemergence herbicidal rating CHEAL", "setting": "[1]; rate 0.1250 kg/ha", "result": 9.0}, {"measurement": "Preemergence herbicidal rating CHEAL", "setting": "[1]; rate 0.2500 kg/ha", "result": 9.0}, {"measurement": "Herbicidal rating CYPSE", "setting": "CYPSE (Flatsedge) [2]; Rate 0.0313 kg/ha", "result": 0.0}, {"measurement": "Herbicidal rating CYPSE", "setting": "CYPSE (Flatsedge) [2]; Rate 0.0625 kg/ha", "result": 0.0}, {"measurement": "Herbicidal rating CYPSE", "setting": "CYPSE (Flatsedge) [2]; Rate 0.1250 kg/ha", "result": 0.0}, {"measurement": "Herbicidal rating CYPSE", "setting": "CYPSE (Flatsedge) [2]; Rate 0.2500 kg/ha", "result": 0.0}, {"measurement": "Preemergence herbicidal rating TRZAWR", "setting": "[3]; rate 0.0156 kg/ha", "result": 0.0}, {"measurement": "Preemergence herbicidal rating TRZAWR", "setting": "[3]; rate 0.0313 kg/ha", "result": 0.0}, {"measurement": "Preemergence herbicidal rating TRZAWR", "setting": "[3]; rate 0.0625 kg/ha", "result": 0.0}, {"measurement": "Preemergence herbicidal rating TRZAWR", "setting": "[3]; rate 0.1250 kg/ha", "result": 0.0}, {"measurement": "Preemergence herbicidal rating TRZAWR", "setting": "[3]; rate 0.2500 kg/ha", "result": 1.0}, {"measurement": "GALAP herbicidal rating", "setting": "GALAP (Galium); rate 0.0158 kg/ha", "result": 2.0}, {"measurement": "GALAP herbicidal rating", "setting": "GALAP (Galium); rate 0.0315 kg/ha", "result": 3.0}, {"measurement": "GALAP herbicidal rating", "setting": "GALAP (Galium); rate 0.0630 kg/ha", "result": 4.0}, {"measurement": "Herbicidal rating ECHORC", "setting": "[4]; Rate 0.0313 kg/ha", "result": 0.0}, {"measurement": "Herbicidal rating ECHORC", "setting": "[4]; Rate 0.0625 kg/ha", "result": 5.0}, {"measurement": "Herbicidal rating ECHORC", "setting": "[4]; Rate 0.1250 kg/ha", "result": 7.0}, {"measurement": "Herbicidal rating ECHORC", "setting": "[4]; Rate 0.2500 kg/ha", "result": 7.0}, {"measurement": "Preemergence herbicidal rating ZEAMX", "setting": "ZEAMX (Corn, Field) [5]; rate 0.0156 kg/ha", "result": 0.0}, {"measurement": "Preemergence herbicidal rating ZEAMX", "setting": "ZEAMX (Corn, Field) [5]; rate 0.0313 kg/ha", "result": 0.0}, {"measurement": "Preemergence herbicidal rating ZEAMX", "setting": "ZEAMX (Corn, Field) [5]; rate 0.0625 kg/ha", "result": 0.0}, {"measurement": "Preemergence herbicidal rating ZEAMX", "setting": "ZEAMX (Corn, Field) [5]; rate 0.1250 kg/ha", "result": 1.0}, {"measurement": "Preemergence herbicidal rating ZEAMX", "setting": "ZEAMX (Corn, Field) [5]; rate 0.2500 kg/ha", "result": 1.0}, {"measurement": "ZEAMX herbicidal rating", "setting": "ZEAMX (Corn, Field) [6]; rate 0.0158 kg/ha", "result": 5.0}, {"measurement": "ZEAMX herbicidal rating", "setting": "ZEAMX (Corn, Field) [6]; rate 0.0315 kg/ha", "result": 5.0}, {"measurement": "ZEAMX herbicidal rating", "setting": "ZEAMX (Corn, Field) [6]; rate 0.0630 kg/ha", "result": 5.5}, {"measurement": "Preemergence herbicidal rating IPOHE", "setting": "[7]; rate 0.0156 kg/ha", "result": 0.0}, {"measurement": "Preemergence herbicidal rating IPOHE", "setting": "[7]; rate 0.0313 kg/ha", "result": 0.0}, {"measurement": "Preemergence herbicidal rating IPOHE", "setting": "[7]; rate 0.0625 kg/ha", "result": 0.0}, {"measurement": "Preemergence herbicidal rating IPOHE", "setting": "[7]; rate 0.1250 kg/ha", "result": 0.0}, {"measurement": "Preemergence herbicidal rating IPOHE", "setting": "[7]; rate 0.2500 kg/ha", "result": 6.0}, {"measurement": "CYPSE herbicidal effect rating", "setting": "CYPSE (Flatsedge) [8]; 0.0313 kg/ha", "result": 0.0}, {"measurement": "CYPSE herbicidal effect rating", "setting": "CYPSE (Flatsedge) [8]; 0.0625 kg/ha", "result": 0.0}, {"measurement": "CYPSE herbicidal effect rating", "setting": "CYPSE (Flatsedge) [8]; 0.1250 kg/ha", "result": 0.0}, {"measurement": "CYPSE herbicidal effect rating", "setting": "CYPSE (Flatsedge) [8]; 0.2500 kg/ha", "result": 0.0}, {"measurement": "ECHORC herbicidal effect rating", "setting": "[9]; 0.0313 kg/ha", "result": 0.0}, {"measurement": "ECHORC herbicidal effect rating", "setting": "[9]; 0.0625 kg/ha", "result": 5.0}, {"measurement": "ECHORC herbicidal effect rating", "setting": "[9]; 0.1250 kg/ha", "result": 7.0}, {"measurement": "ECHORC herbicidal effect rating", "setting": "[9]; 0.2500 kg/ha", "result": 7.0}, {"measurement": "Preemergence herbicidal rating ORYSAT", "setting": "ORYSAT (Rice, Tebonnet); rate 0.0156 kg/ha", "result": 0.0}, {"measurement": "Preemergence herbicidal rating ORYSAT", "setting": "ORYSAT (Rice, Tebonnet); rate 0.0313 kg/ha", "result": 0.0}, {"measurement": "Preemergence herbicidal rating ORYSAT", "setting": "ORYSAT (Rice, Tebonnet); rate 0.0625 kg/ha", "result": 0.0}, {"measurement": "Preemergence herbicidal rating ORYSAT", "setting": "ORYSAT (Rice, Tebonnet); rate 0.1250 kg/ha", "result": 0.0}, {"measurement": "Preemergence herbicidal rating ORYSAT", "setting": "ORYSAT (Rice, Tebonnet); rate 0.2500 kg/ha", "result": 1.0}, {"measurement": "CYPIR herbicidal effect rating", "setting": "CYPIR (Rice Flatsedge); 0.0313 kg/ha", "result": 0.0}, {"measurement": "CYPIR herbicidal effect rating", "setting": "CYPIR (Rice Flatsedge); 0.0625 kg/ha", "result": 0.0}, {"measurement": "CYPIR herbicidal effect rating", "setting": "CYPIR (Rice Flatsedge); 0.1250 kg/ha", "result": 5.0}, {"measurement": "CYPIR herbicidal effect rating", "setting": "CYPIR (Rice Flatsedge); 0.2500 kg/ha", "result": 8.0}]}
